Laboratory results reported in PMC8688955 (Frontiers in Pharmacology, 2021).

How the values were obtained:
CP-AMPARs = assay: Whole-cell patch-clamp of kainate-induced currents in isolated striatal giant interneurons; type: cell-based, Wistar rat; conditions: for % block: representative recording, Figure 1B; for % inhibition: 200 µM phenytoin, n = 5
Procedure: All experimental procedures were approved by the Animal Care and Use Committee of the I.M. Sechenov Institute of Evolutionary Physiology and Biochemistry of the Russian Academy of Sciences. Wistar rats (13–19 days old) were anesthetized with sevoflurane and then decapitated. Maximum effort was made to minimize the number of animals used. Brains were removed quickly and cooled to 2–4°C in an ice bath. […] Single neurons were freed from slices by vibrodissociation ([Vorobjev, 1991]). The antagonism of CP-AMPARs was studied on striatal giant interneurons ([Bernard et al., 1997]; [Gotz et al., 1997]), which were identified by their shape and size. […] The antagonism of CI-AMPARs was studied on pyramidal neurons from the CA1 area of the hippocampus.
(§1) Series resistance of about 20 MΩ was compensated by 70–80% and monitored during experiments. Currents were recorded using an EPC-8 amplifier (HEKA Electronics, Lambrecht, Germany), filtered at 5 kHz, sampled, and stored on a personal computer. Drugs were applied using the RSC-200 perfusion system (BioLogic Science Instruments, Claix, France) under computer control. The solution exchange time in the whole-cell mode was 50–60 ms. The extracellular solution contained (in mM) NaCl 143, KCl 5, MgCl2 2.0, CaCl2 2.5, D-glucose 18, and HEPES 10 (pH was adjusted to 7.3 with HCl). The pipette solution contained (in mM) CsF 100, CsCl 40, NaCl 5, CaCl2 0.5, EGTA 5, and HEPES 10 (pH was adjusted to 7.2 with CsOH). Experiments were performed at room temperature (22–24°C). […] Lamotrigine, topiramate, levetiracetam, felbamate, carbamazepine, tiagabin, vigabatrin, zonisamide, and gabapentin were purchased from Tocris Bioscience (Bristol, United Kingdom). Perampanel was from MedChemExpress (Stockholm, Sweden). Kinetics of transient processes of more than 20-ms duration was approximated by exponential functions. Experiments were performed at −80 mV holding voltage. All experimental data are presented as mean ± SD estimated from at least four experiments. Significance of the effects was tested with paired t test. Differences were considered significant at p < 0.05. 3D structures of compounds were calculated by the ZMM software (zmmsoft.ca).

[1] = Solubility in the extracellular solution; type: physicochemical; conditions: concentrations above 500 µM could not be tested
Procedure: as §1, with “The whole-cell patch-clamp technique was used for recording of membrane currents generated in response to applications of kainate. Series” for “Series”, “All experimental data are presented as mean ± SD estimated from at least four experiments. Significance of the effects was tested with paired t test. Differences were considered significant at p < 0.05.” left out

## O=C1NC(=O)C(c2ccccc2)(c2ccccc2)N1 [Phenytoin]
CP-AMPARs; 30 μM phenytoin
  % block: 19%
CP-AMPARs; 100 μM phenytoin
  % block: 38%
CP-AMPARs; 50 µM kainate
  % inhibition: 59 ± 5%
CP-AMPARs; 500 µM kainate
  % inhibition: 48 ± 2%
CP-AMPARs; 300 µM phenytoin, n = 8
  % block, coapplication with agonist: 60 ± 6%
CP-AMPARs; 300 μM phenytoin
  % block: 57%
CP-AMPARs; 500 µM phenytoin, highest concentration tested
  inhibition of kainate-induced currents: 58 ± 5%
CP-AMPARs; inhibition of CP-AMPARs, Hill equation
  Hill coefficient: 0.7 ± 0.2
CP-AMPARs; kainate-induced currents, Hill equation, −80 mV, read-out: IC50 CP-AMPARs
  IC50: 250 ± 60 µM
[1]
  solubility in the extracellular solution: poor solubility
